Measured values: US20170190671A1, “BIS(ARYL)CATECHOL DERIVATIVES AS HERBICIDES” (E I DU PONT DE NEMOURS AND COMPANY, priority 2014, published 2017)

Key:
Assay in all cases: Test C preemergence
Type in all cases: in vivo
[1] = test system: velvetleaf (Abutilon theophrasti); settings: Abutilon theophrasti, pre-emergence, preemergence, scale 0 to 100, read-out: Plant response rating, Velvetleaf
Method in brief: (§1)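 Visual ratings (0 none to 100 complete control) were made 13 to 15 days after treatment, relative to controls. Test chemicals, formulated in a non-phytotoxic solvent mixture with surfactant, were applied in the greenhouse preemergence to seeded loam-sand soil or postemergence to plants 2 to 18 cm tall.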

[2] = test system: large (Lg) crabgrass (Digitaria sanguinalis); settings: Digitaria sanguinalis, pre-emergence, 336 h, preemergence, scale 0 to 100, read-out: Plant response rating, Crabgrass, Large
Method in brief: as §1

[3] = test system: blackgrass (Alopecurus myosuroides); settings: Alopecurus myosuroides, pre-emergence, 336 h, preemergence, scale 0 to 100, read-out: Plant response rating, Blackgrass
Method in brief: as §1

[4] = test system: winter wheat (Triticum aestivum); settings: Triticum aestivum, pre-emergence, 336 h, preemergence, scale 0 to 100, read-out: Plant response rating, Wheat
Method in brief: as §1

[5] = test system: barnyardgrass (Echinochloa crus-galli); settings: Echinochloa crus-galli, pre-emergence, preemergence, scale 0 to 100, read-out: Plant response rating, Barnyardgrass
Method in brief: as §1

[6] = test system: ragweed (common ragweed, Ambrosia elatior); settings: Ambrosia artemisiifolia, pre-emergence, 336 h, preemergence, scale 0 to 100, read-out: Plant response rating, Ragweed
Method in brief: as §1

corn (Zea mays) = settings: Zea mays, pre-emergence, 336 h, preemergence, scale 0 to 100
Method in brief: as §1

[7] = test system: pigweed (Amaranthus retroflexus); settings: Amaranthus retroflexus, pre-emergence, 336 h, preemergence, scale 0 to 100, read-out: Plant response rating, Pigweed
Method in brief: as §1

[8] = test system: giant foxtail (Setaria faberii); settings: Setaria faberi, pre-emergence, 336 h, preemergence, scale 0 to 100, read-out: Plant response rating, Foxtail, Giant
Method in brief: as §1

soybean (Glycine max) = settings: Glycine max, pre-emergence, preemergence, scale 0 to 100, read-out: Plant response rating, Soybean
Method in brief: as §1

[9] = test system: lambsquarters (Chenopodium album); settings: Chenopodium album, pre-emergence, 336 h, preemergence, scale 0 to 100, read-out: Plant response rating, Lambsquarters
Method in brief: as §1

[10] = test system: johnsongrass (Sorghum halepense); settings: Sorghum halepense, pre-emergence, 336 h, preemergence, scale 0 to 100, read-out: Plant response rating, Johnsongrass
Method in brief: as §1

[11] = test system: Italian ryegrass (Lolium multiflorum); settings: Lolium multiflorum, pre-emergence, 336 h, preemergence, scale 0 to 100, read-out: Plant response rating, Ryegrass, Italian
Method in brief: as §1

[12] = test system: yellow nutsedge (Cyperus esculentus); settings: Cyperus, pre-emergence, 336 h, preemergence, scale 0 to 100, read-out: Plant response rating, Nutsedge, Yellow
Method in brief: as §1

## Fc1cccc(Oc2ncc(Cl)cn2)c1Oc1ncc(Br)cn1 [Compound 27, 5-bromo-2-[2-fluoro-6-[(5-chloro-2-pyrimidinyl)oxy]phenoxy]pyrimidine]
[1]; 31 g ai/ha
  pest or weed control at 31 g/ha: 60%
[1]; 62 g ai/ha
  pest or weed control at 62 g/ha: 95%
[1]; 125 g ai/ha
  pest or weed control at 125 g/ha: 100%
[1]; 250 g ai/ha
  pest or weed control at 250 g/ha: 100%
[2]; 31 g ai/ha
  pest or weed control at 31 g/ha: 98%
[2]; 62 g ai/ha
  pest or weed control at 62 g/ha: 98%
[2]; 125 g ai/ha
  pest or weed control at 125 g/ha: 100%
[3]; 31 g ai/ha
  pest or weed control at 31 g/ha: 15%
[3]; 62 g ai/ha
  pest or weed control at 62 g/ha: 60%
[3]; 125 g ai/ha
  pest or weed control at 125 g/ha: 90%
[4]; 31 g ai/ha
  plant injury at 31 g/ha: 0%
[4]; 62 g ai/ha
  plant injury at 62 g/ha: 5%
[4]; 125 g ai/ha
  plant injury at 125 g/ha: 40%
[4]; 250 g ai/ha
  plant injury at 250 g/ha: 85%
[5]; 31 g ai/ha
  pest or weed control at 31 g/ha: 55%
[5]; 62 g ai/ha
  pest or weed control at 62 g/ha: 100%
[5]; 125 g ai/ha
  pest or weed control at 125 g/ha: 100%
[5]; 250 g ai/ha
  pest or weed control at 250 g/ha: 100%
[6]; 31 g ai/ha
  pest or weed control at 31 g/ha: 20%
[6]; 62 g ai/ha
  pest or weed control at 62 g/ha: 60%
[6]; 125 g ai/ha
  pest or weed control at 125 g/ha: 70%
[6]; 250 g ai/ha
  pest or weed control at 250 g/ha: 85%
Corn (Zea mays); 31 g ai/ha
  Corn plant response rating (crop injury, 0 = no effect, 100 = complete kill) at 31 g/ha: 10%
Corn (Zea mays); 62 g ai/ha
  Corn plant response rating (crop injury, 0 = no effect, 100 = complete kill) at 62 g/ha: 45%
Corn (Zea mays); 125 g ai/ha
  Corn plant response rating (crop injury, 0 = no effect, 100 = complete kill) at 125 g/ha: 60%
[7]; 31 g ai/ha
  pest or weed control at 31 g/ha: 100%
[7]; 62 g ai/ha
  pest or weed control at 62 g/ha: 100%
[7]; 125 g ai/ha
  pest or weed control at 125 g/ha: 100%
[8]; 31 g ai/ha
  pest or weed control at 31 g/ha: 80%
[8]; 62 g ai/ha
  pest or weed control at 62 g/ha: 100%
[8]; 125 g ai/ha
  pest or weed control at 125 g/ha: 100%
Soybean (Glycine max); 31 g ai/ha
  plant injury at 31 g/ha: 40%
Soybean (Glycine max); 250 g ai/ha
  plant injury at 250 g/ha: 90%
[9]; 31 g ai/ha
  pest or weed control at 31 g/ha: 80%
[9]; 62 g ai/ha
  pest or weed control at 62 g/ha: 85%
[9]; 125 g ai/ha
  pest or weed control at 125 g/ha: 100%
[10]; 31 g ai/ha
  pest or weed control at 31 g/ha: 25%
[10]; 62 g ai/ha
  pest or weed control at 62 g/ha: 55%
[10]; 125 g ai/ha
  pest or weed control at 125 g/ha: 75%
[11]; 31 g ai/ha
  pest or weed control at 31 g/ha: 10%
[11]; 62 g ai/ha
  pest or weed control at 62 g/ha: 55%
[11]; 125 g ai/ha
  pest or weed control at 125 g/ha: 80%
[11]; 250 g ai/ha
  pest or weed control at 250 g/ha: 95%
[12]; 31 g ai/ha
  pest or weed control at 31 g/ha: 0%
[12]; 62 g ai/ha
  pest or weed control at 62 g/ha: 0%
[12]; 125 g ai/ha
  pest or weed control at 125 g/ha: 55%
